Each structure is given as a SMILES string. Where two headings read alike, the source gives them in different places.

Among the data in patent US10125134B2 (Mirati Therapeutics, Inc., priority 2016, dated 2018) are POC and IC50 values, retold here.

Experiment [1] has as its target KRas G12C (Homo sapiens, UniProt P01116, C118S/C51S/C80L/G12C). Kind of experiment: KRas G12C Modification Assay (LCMS detection of covalent adduct). It is filed as binding. The settings on record: normalized percent of control; tested at 5 μM concentration for 3 hours. The procedure, abridged: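 Covalent modification was read by reverse-phase LC/MS of intact protein after compound exposure, each reaction stopped at its time point with 25 mM acetic acid. Unmodified-protein signal, taken as percent of total, was normalised to untreated protein and reported as POC.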

The subject of experiment [2] is NCI-H358 cells (express KRas G12C), Phospho-ERK. Kind of experiment: Cellular inhibition of KRas G12C: Phospho-ERK in NCI-H358 cells. It is filed as cell-based. The settings on record: Homo sapiens, pERK(Thr202/Tyr204) normalized with GAPDH, NCI-H358 cells, 3 hours, read-out: IC50. The procedure, abridged: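 IC50 derived by 4-parameter fit of GAPDH-normalized pERK(Thr202/Tyr204) signal, as percent of DMSO control. Signal came from in-cell immunodetection with infrared secondaries after 3 h compound exposure of KRas G12C NCI-H358 cells at 0.5% DMSO.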

Turning to `C=CC(=O)N1CCN(c2nc(OC[C@@H]3CCCN3C)nc3c2CCN(c2cccc(Cl)c2CC)C3)C[C@@H]1CC#N` [Example 337, 2-[(2S)-4-[7-(3-chloro-2-ethyl-phenyl)-2-[[(2S)-1-methylpyrrolidin-2-yl]methoxy]-6,8-dihydro-5H-pyrido[3,4-d]pyrimidin-4-yl]-1-prop-2-enoyl-piperazin-2-yl]acetonitrile], the POC result in experiment [1] was “C (“C”>50% POC)”. The 50% inhibitory concentration (IC50) in experiment [2] (NCI-H358, 3 h) is 0.0001 to 1 µM.
On the same counts, the results for `C=CC(=O)N1CCN(c2nc(OC[C@@H]3CCCN3C)nc3c2CCN(c2cccc4cccc(F)c24)C3)C[C@@H]1CC#N` [Example 338, 2-((S)-1-acryloyl-4-(7-(8-fluoronaphthalen-1-yl)-2-(((S)-1-methylpyrrolidin-2-yl)methoxy)-5,6,7,8-tetrahydropyrido[3,4-d]pyrimidin-4-yl)piperazin-2-yl)acetonitrile] are “C (“C”>50% POC)” and 0.0001 to 1 µM.
On to `C=CC(=O)N1CCN(c2nc(OC[C@@H]3CCCN3CC)nc3c2CCN(c2cccc(Cl)c2C(F)(F)F)C3)C[C@@H]1CC#N` [Example 339, 2-((S)-1-acryloyl-4-(7-(3-chloro-2-(trifluoromethyl)phenyl)-2-(((S)-1-ethylpyrrolidin-2-yl)methoxy)-5,6,7,8-tetrahydropyrido[3,4-d]pyrimidin-4-yl)piperazin-2-yl)acetonitrile], for which the POC result in experiment [1] is “C (“C”>50% POC)”. Further, the half-maximal inhibitory concentration (IC50) in experiment [2] (NCI-H358, 3 h) fell in the range of 0.0001 to 1 µM.
Take `C=CC(=O)N1CCN(c2nc(OC[C@@H]3CCCN3C)nc3c2CCN(c2cnccc2OC)C3)C[C@@H]1CC#N` [Example 340, 2-((S)-1-acryloyl-4-(7-(4-methoxypyridin-3-yl)-2-(((S)-1-methylpyrrolidin-2-yl)methoxy)-5,6,7,8-tetrahydropyrido[3,4-d]pyrimidin-4-yl)piperazin-2-yl)acetonitrile]: in experiment [1], the POC entry is on record as “C (“C”>50% POC)”. For the same compound, in experiment [2] (NCI-H358, 3 h), the IC50 was > 1 µM.
On the same counts, the results for `C=CC(=O)N1CCN(c2nc(OC[C@@H]3CCCN3CCO)nc3c2CCN(c2cccc4ccccc24)C3)C[C@@H]1CC#N` [Example 341, 2-((S)-1-acryloyl-4-(2-(((S)-1-(2-hydroxyethyl)pyrrolidin-2-yl)methoxy)-7-(naphthalen-1-yl)-5,6,7,8-tetrahydropyrido[3,4-d]pyrimidin-4-yl)piperazin-2-yl)acetonitrile] are “C (“C”>50% POC)” and 0.0001 to 1 µM.
Regarding `CN(C)C/C=C/C(=O)N1CCN(c2nc(OC[C@@H]3C[C@@H](O)CN3C)nc3c2CCN(c2cccc(F)c2C(F)(F)F)C3)C[C@@H]1CC#N` [Example 342, 2-[(2S)-1-[(E)-4-(dimethylamino)but-2-enoyl]-4-[7-[3-fluoro-2-(trifluoromethyl)phenyl]-2-[[(2S,4R)-4-hydroxy-1-methyl-pyrrolidin-2-yl]methoxy]-6,8-dihydro-5H-pyrido[3,4-d]pyrimidin-4-yl]piperazin-2-yl]acetonitrile], the POC entry in experiment [1] is “C (“C”>50% POC)”. The IC50 in experiment [2] fell in the range of 0.0001 to 1 µM.
Take `C=CS(=O)(=O)N1CCN(c2nc(OC[C@@H]3CCCN3C)nc3c2CCN(c2cccc(C)c2C)C3)CC1` [Example 343, (S)-7-(2,3-dimethylphenyl)-2-((1-methylpyrrolidin-2-yl)methoxy)-4-(4-(vinylsulfonyl)piperazin-1-yl)-5,6,7,8-tetrahydropyrido[3,4-d]pyrimidine]: the POC result in experiment [1] is reported as “C (“C”>50% POC)”. Also, in experiment [2] (NCI-H358, 3 h), the 50% inhibitory concentration (IC50) is > 1 µM.
On the same counts, the results for `C=CC(=O)N1CCN(c2nc(OC[C@H]3CCCN3C)nc3c2CCN(c2cc(O)cc4ccccc24)C3)C[C@@H]1CC#N` [Example 344, 2-[(2S)-4-[7-(3-hydroxy-1-naphthyl)-2-[[(2R)-1-methylpyrrolidin-2-yl]methoxy]-6,8-dihydro-5H-pyrido[3,4-d]pyrimidin-4-yl]-1-prop-2-enoyl-piperazin-2-yl]acetonitrile] are “C (“C”>50% POC)” and 0.0001 to 1 µM.
On the same counts, the results for `C=CC(=O)N1CCN(c2nc(OC[C@@H]3CCCN3C)nc3c2CCN(c2ccncc2C)C3)C[C@@H]1CC#N` [Example 345, 2-[(2S)-4-[7-(3-methyl-4-pyridyl)-2-[[(2S)-1-methylpyrrolidin-2-yl]methoxy]-6,8-dihydro-5H-pyrido[3,4-d]pyrimidin-4-yl]-1-prop-2-enoyl-piperazin-2-yl]acetonitrile] are “C (“C”>50% POC)” and > 1 µM.
For `CN1CCC[C@H]1COc1nc2c(c(N3CCN(C(=O)/C=C/CN4CCOCC4)[C@@H](CC#N)C3)n1)CCN(c1cccc(Cl)c1C(F)(F)F)C2` [Example 346, 2-[(2S)-4-[7-[3-chloro-2-(trifluoromethyl)phenyl]-2-[[(2S)-1-methylpyrrolidin-2-yl]methoxy]-6,8-dihydro-5H-pyrido[3,4-d]pyrimidin-4-yl]-1-[(E)-4-morpholinobut-2-enoyl]piperazin-2-yl]acetonitrile], in that order: “C (“C”>50% POC)” and 0.0001 to 1 µM.
As for `CN1CCC[C@H]1COc1nc2c(c(N3CCN(C(=O)/C=C/CN4CCCC4)[C@@H](CC#N)C3)n1)CCN(c1cccc(Cl)c1C(F)(F)F)C2` [Example 347, 2-[(2S)-4-[7-[3-chloro-2-(trifluoromethyl)phenyl]-2-[[(2S)-1-methylpyrrolidin-2-yl]methoxy]-6,8-dihydro-5H-pyrido[3,4-d]pyrimidin-4-yl]-1-[(E)-4-pyrrolidin-1-ylbut-2-enoyl]piperazin-2-yl]acetonitrile], the POC entry in experiment [1] was “C (“C”>50% POC)”. In addition, the IC50 in experiment [2] (NCI-H358, 3 h) lay within 0.0001 to 1 µM.
Regarding `C=CC(=O)N1CCN(c2nc(O[C@H](C)[C@H]3CCCN3C)nc3c2CCN(c2cc(O)cc4ccccc24)C3)C[C@@H]1CC#N` [Example 348, 2-[(2S)-4-[7-(3-hydroxy-1-naphthyl)-2-[(1R)-1-[(2R)-1-methylpyrrolidin-2-yl]ethoxy]-6,8-dihydro-5H-pyrido[3,4-d]pyrimidin-4-yl]-1-prop-2-enoyl-piperazin-2-yl]acetonitrile], the POC result in experiment [1] was “C (“C”>50% POC)”. Also, the 50% inhibitory concentration (IC50) in experiment [2] (NCI-H358, 3 h) was in the range of 0.0001 to 1 µM.
On the same counts, the results for `C=CC(=O)N1CCN(c2nc(OC[C@@H]3CCCN3C)nc3c2CCN(c2c(C)ccc(F)c2C)C3)C[C@@H]1CC#N` [Example 349, 2-((S)-1-acryloyl-4-(7-(3-fluoro-2,6-dimethylphenyl)-2-(((S)-1-methylpyrrolidin-2-yl)methoxy)-5,6,7,8-tetrahydropyrido[3,4-d]pyrimidin-4-yl)piperazin-2-yl)acetonitrile] are “C (“C”>50% POC)” and 0.0001 to 1 µM.
On the same counts, the results for `C=CC(=O)N1CCN(c2nc(OC[C@@H]3CCN(C)C3)nc3c2CCN(c2cc(O)cc4ccccc24)C3)C[C@@H]1CC#N` [Example 350, 2-((S)-1-acryloyl-4-(7-(3-hydroxynaphthalen-1-yl)-2-(((R)-1-methylpyrrolidin-3-yl)methoxy)-5,6,7,8-tetrahydropyrido[3,4-d]pyrimidin-4-yl)piperazin-2-yl)acetonitrile] are “C (“C”>50% POC)” and 0.0001 to 1 µM.
On the same counts, the results for `C=CC(=O)N1CCN(c2nc(OCc3ncc[nH]3)nc3c2CCN(c2cccc4ccccc24)C3)C[C@@H]1CC#N` [Example 351, 2-[(2S)-4-[2-(1H-imidazol-2-ylmethoxy)-7-(1-naphthyl) -6,8-dihydro-5H-pyrido[3,4-d]pyrimidin-4-yl]-1-prop-2-enoyl-piperazin-2-yl]acetonitrile] are “C (“C”>50% POC)” and 0.0001 to 1 µM.
`C=CC(=O)N1CCN(c2nc(OC[C@@H]3CCCN3C)nc3c2CCN(c2cnccc2C2CC2)C3)C[C@@H]1CC#N` [Example 352, 2-[(2S)-4-[7-(4-cyclopropyl-3-pyridyl)-2-[[(2S)-1-methylpyrrolidin-2-yl]methoxy]-6,8-dihydro-5H-pyrido[3,4-d]pyrimidin-4-yl]-1-prop-2-enoyl-piperazin-2-yl]acetonitrile]: the POC result in experiment [1] is given as “C (“C”>50% POC)”. Further, the IC50 in experiment [2] (NCI-H358, 3 h) was 0.0001 to 1 µM.
On the same counts, the results for `C=CC(=O)N1CCN(c2nc(OC[C@@H]3CCCN3C)nc3c2CCN(c2cccc4ccccc24)C3)[C@H](C)C1` [Example 353, 1-[(3R)-3-methyl-4-[2-[[(2S)-1-methylpyrrolidin-2-yl]methoxy]-7-(1-naphthyl)-6,8-dihydro-5H-pyrido[3,4-d]pyrimidin-4-yl]piperazin-1-yl]prop-2-en-1-one] are “C (“C”>50% POC)” and > 1 µM.
For `C=CC(=O)N1CCN(c2nc(OC[C@@H]3CCCN3C)nc3c2CCN(c2cccc4ccccc24)C3)C(C)(C)C1` [Example 354, 1-[3,3-dimethyl-4-[2-[[(2S)-1-methylpyrrolidin-2-yl]methoxy]-7-(1-naphthyl)-6,8-dihydro-5H-pyrido[3,4-d]pyrimidin-4-yl]piperazin-1-yl]prop-2-en-1-one], in that order: “C (“C”>50% POC)” and > 1 µM.
On the same counts, the results for `C=CC(=O)N1CCN(c2nc(OC[C@@H]3C[C@@H](F)CN3C)nc3c2CCN(c2cc(OC)cc4ccccc24)C3)CC1` [Example 355, 1-[4-[2-[[(2S,4R)-4-fluoro-1-methyl-pyrrolidin-2-yl]methoxy]-7-(3-methoxy-1-naphthyl)-6,8-dihydro-5H-pyrido[3,4-d]pyrimidin-4-yl]piperazin-1-yl]prop-2-en-1-one] are “A (“A”≤25% POC)” and > 1 µM.

A word on the IC50: it is the concentration that gives 50% inhibition.
